Read-outs that look alike come from different tables or passages of the source.
Biological target: T1, hTLR7 (Homo sapiens, UniProt Q9NYK1)
T1 construct: expressed in transfected cells; host or cells: HEK-Blue hTLR7 reporter cell line
T1 sequence (Q9NYK1 27-1049): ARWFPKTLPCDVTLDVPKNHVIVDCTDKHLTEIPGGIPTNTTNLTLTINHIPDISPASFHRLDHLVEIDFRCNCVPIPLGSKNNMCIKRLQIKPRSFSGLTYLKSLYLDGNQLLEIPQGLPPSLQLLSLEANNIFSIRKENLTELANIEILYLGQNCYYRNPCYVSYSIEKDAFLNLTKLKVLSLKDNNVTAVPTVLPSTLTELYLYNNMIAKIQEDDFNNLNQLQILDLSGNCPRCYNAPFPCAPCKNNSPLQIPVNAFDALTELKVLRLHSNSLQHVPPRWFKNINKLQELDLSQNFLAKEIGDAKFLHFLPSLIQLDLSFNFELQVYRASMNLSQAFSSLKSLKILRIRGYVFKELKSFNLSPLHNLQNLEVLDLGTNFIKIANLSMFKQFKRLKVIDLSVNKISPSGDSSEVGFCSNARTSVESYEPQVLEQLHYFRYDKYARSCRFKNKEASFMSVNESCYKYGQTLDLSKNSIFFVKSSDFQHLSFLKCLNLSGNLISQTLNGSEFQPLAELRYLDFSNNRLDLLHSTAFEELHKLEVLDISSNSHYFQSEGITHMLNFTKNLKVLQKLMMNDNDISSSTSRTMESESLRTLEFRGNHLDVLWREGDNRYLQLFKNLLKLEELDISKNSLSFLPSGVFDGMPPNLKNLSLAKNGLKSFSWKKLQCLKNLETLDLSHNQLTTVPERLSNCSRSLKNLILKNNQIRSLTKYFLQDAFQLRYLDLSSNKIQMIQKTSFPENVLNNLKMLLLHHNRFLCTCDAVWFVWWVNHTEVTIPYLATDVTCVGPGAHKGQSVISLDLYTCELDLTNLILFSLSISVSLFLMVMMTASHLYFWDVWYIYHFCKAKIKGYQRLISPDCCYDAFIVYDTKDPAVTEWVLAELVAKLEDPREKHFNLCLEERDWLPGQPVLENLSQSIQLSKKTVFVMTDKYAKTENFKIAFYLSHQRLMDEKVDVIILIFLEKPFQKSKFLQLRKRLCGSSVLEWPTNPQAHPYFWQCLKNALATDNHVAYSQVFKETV
Assay: HEK-Blue hTLR7 reporter assay (NF-kB-induced SEAP, Quanti-Blue)
Format: cell-based
Protocol: HEK-Blue™ hTLR7 cells were incubated in HEK-Blue™ Detection medium and stimulated with increasing concentrations of TLR7 or TLR8 or TLR7/8 agonists. […] The EC50 was determined from dose-response curve using Prism Software.

[1] = Table 12, TLR7 agonists attached to a linker, read-out: TLR Agonist Payload + Linkers EC50
[2] = Table 15, drug linker, read-out: TLR Agonist + Linker (DL) - EC50
[3] = Table 15, pAF containing final metabolite, read-out: TLR Agonist + Linker + nnAA (DL-pAF) - EC50
[4] = Table 11, TLR7 activities, read-out: EC50

CCCCc1nc2c(N)nc3ccccc3c2n1CCCCNC(=O)c1ccc(N)c(OC)c1 [AXC-725, 4-amino-N-(4-(4-amino-2-butyl-1H-imidazo[4,5-c]quinolin-1-yl)butyl)-3-methoxybenzamide]
EC50 (Table 10, read-out: TLR7 EC50): 249 nM

CCCCc1nc2c(N)nc3cccnc3c2n1CCCCNC(=O)c1cnccn1 [AXC-732, N-(4-(4-amino-2-butyl-1H-imidazo[4,5-c][1,5]naphthyridin-1-yl)butyl)pyrazine-2-carboxamide]
EC50 (Table 10, read-out: TLR7 EC50): 256 nM

CCCCc1nc2c(N)nc3cccnc3c2n1CCCCNC(=O)c1ccc(N)c(OC)c1 [AXC-736, 4-amino-N-(4-(4-amino-2-butyl-1H-imidazo[4,5-c][1,5]naphthyridin-1-yl)butyl)-3-methoxybenzamide]
EC50 (Table 10, read-out: TLR7 EC50): 213 nM

CCc1nc2c(N)nc3ccccc3c2n1CCCCNC(=O)c1ccc(N(C)C)cc1 [AXC-738, N-(4-(4-amino-2-ethyl-1H-imidazo[4,5-c]quinolin-1-yl)butyl)-4-(dimethylamino)benzamide]
EC50 (Table 10, read-out: TLR7 EC50): 11.1 nM

CCc1nc2c(N)nc3ccccc3c2n1CCCCNC(=O)/C=C/c1ccc(N(C)C)cc1 [AXC-739, (E)-N-(4-(4-amino-2-ethyl-1H-imidazo[4,5-c]quinolin-1-yl)butyl)-3-(4-(dimethylamino)phenyl)acrylamide]
EC50 (Table 10, read-out: TLR7 EC50): 28.2 nM

CCCCc1nc2c(N)nc3ccccc3c2n1CCCCNC(=O)c1ccc(N(C)C)cc1 [AXC-740, N-(4-(4-amino-2-butyl-1H-imidazo[4,5-c]quinolin-1-yl)butyl)-4-(dimethylamino)benzamide]
EC50 (Table 10, read-out: TLR7 EC50): 116 nM

CCCCc1nc2c(N)nc3cccnc3c2n1CCCCNC(=O)c1ccc(N(C)C)cc1 [AXC-743, N-(4-(4-amino-2-butyl-1H-imidazo[4,5-c][1,5]naphthyridin-1-yl)butyl)-4-(dimethylamino)benzamide]
EC50 (Table 10, read-out: TLR7 EC50): 56.1 nM

CCCCc1nc2c(N)nc3ccccc3c2n1CCCCNC(=O)c1ccc(N2CCCC2)cc1 [AXC-777, N-(4-(4-amino-2-butyl-1H-imidazo[4,5-c]quinolin-1-yl)butyl)-4-(pyrrolidin-1-yl)benzamide]
EC50 (Table 10, read-out: TLR7 EC50): 910 nM

CCCCc1nc2c(N)nc3ccccc3c2n1CCCCNC(=O)c1ccc(N)c(F)c1 [AXC-778, 4-amino-N-(4-(4-amino-2-butyl-1H-imidazo[4,5-c]quinolin-1-yl)butyl)-3-fluorobenzamide]
EC50 (Table 10, read-out: TLR7 EC50): 83.3 nM

CCCCc1nc2c(N)nc3ccccc3c2n1CCCCNC(=O)c1cc(F)c(N)c(F)c1 [AXC-779, 4-amino-N-(4-(4-amino-2-butyl-1H-imidazo[4,5-c]quinolin-1-yl)butyl)-3,5-difluorobenzamide]
EC50 (Table 10, read-out: TLR7 EC50): 242 nM

CCCCc1nc2c(N)nc3ccccc3c2n1CCCCNC(=O)c1cc(F)c(NC(=O)[C@H](C)NC(=O)CON)c(F)c1 [AXC-800, (S)—N-(4-(4-amino-2-butyl-1H-imidazo[4,5-c]quinolin-1-yl)butyl)-4-(2-(2-(aminooxy)acetamido)propanamido)-3,5-difluorobenzamide]
EC50 (Table 10, read-out: TLR7 EC50): > 5000 nM

CCCCc1nc2c(N)nc3ccccc3c2n1CCCCNC(=O)c1cc(F)c(NC(=O)[C@H](CCCNC(N)=O)NC(=O)[C@@H](NC(=O)CON)C(C)C)c(F)c1 [AXC-801, N-(4-(4-amino-2-butyl-1H-imidazo[4,5-c]quinolin-1-yl)butyl)-4-((S)-2-((S)-2-(2-(aminooxy)acetamido)-3-methylbutanamido)-5-ureidopentanamido)-3,5-difluorobenzamide]
EC50 (Table 10, read-out: TLR7 EC50): > 5000 nM

CCCCc1nc2c(N)nc3ccccc3c2n1CCCCNC(=O)c1cc(F)c(NC(=O)[C@H](CCCNC(N)=O)NC(=O)[C@@H](NC(=O)CCOCCON)C(C)C)c(F)c1 [AXC-802, N-(4-(4-amino-2-butyl-1H-imidazo[4,5-c]quinolin-1-yl)butyl)-4-((S)-2-((S)-2-(3-(2-(aminooxy)ethoxy)propanamido)-3-methylbutanamido)-5-ureidopentanamido)-3,5-difluorobenzamide]
EC50 (Table 10, read-out: TLR7 EC50): > 5000 nM

CCCCc1nc2c(N)nc3ccccc3c2n1CCCCNC(=O)c1cccc(N)c1 [AXC-803, 3-amino-N-(4-(4-amino-2-butyl-1H-imidazo[4,5-c]quinolin-1-yl)butyl)benzamide]
EC50 (Table 10, read-out: TLR7 EC50): 332 nM

CCCCc1nc2c(N)nc3ccccc3c2n1CCCCNC(=O)c1ccc(F)c(N)c1 [AXC-804, 3-amino-N-(4-(4-amino-2-butyl-1H-imidazo[4,5-c]quinolin-1-yl)butyl)-4-fluorobenzamide]
EC50 (Table 10, read-out: TLR7 EC50): 260 nM

CCCCCNc1nc(N)nc2ccn(Cc3cc(CN4CCN(CCCNC(=O)CON)CC4)ccc3OC)c12 [AXC-860, reference compound]
EC50 (Table 14, read-out: TLR7 EC50): 120 nM

CCCCOc1nc(N)c2[nH]c(=O)n(Cc3ccc(CNC(=O)CON)cc3)c2n1 [AXC-862]
EC50 [1]: 400 nM
EC50 [2]: 400 nM
EC50 [3]: 121 nM

CCCCNc1nc(N)c2[nH]c(=O)n(Cc3ccc(N4CCN(CCNC(=O)CON)CC4)nc3)c2n1 [AXC-867]
EC50 [1]: 829 nM
EC50 [2]: 829 nM
EC50 [3]: 283 nM

CCCCNc1nc(N)c2[nH]c(=O)n(Cc3ccc(NCCN(C)CCNC(=O)CCOCCOCCOCCOCCON)nc3)c2n1 [AXC-869, NH2O-PEG3-Pr-(6-amino-9-((6-(2-((2-aminoethyl)(methyl)amino)ethylamino)pyridin-3-yl)methyl)-2-(butylamino)-7H-purin-8(9H)-one)acetamide]
EC50 [1]: > 10000 nM

CCCCOc1nc(N)c2[nH]c(=O)n(Cc3ccc(N4CCC(CCNC(=O)CCOCCON)CC4)nc3)c2n1 [AXC-876, N-(2-(1-(5-((6-amino-2-butoxy-8-oxo-7H-purin-9(8H)-yl)methyl)pyridin-2-yl)piperidin-4-yl)ethyl)-3-(2-(aminooxy)ethoxy)propanamide]
EC50 [1]: 362 nM
EC50 [2]: 362 nM
EC50 [3]: 245 nM

CCCCOc1nc(N)c2[nH]c(=O)n(Cc3ccc(CN4CCC(CCNC(=O)OC(C)(C)C)CC4)cc3)c2n1 [AXC-877, tert-butyl 2-(1-(4-((6-amino-2-butoxy-8-oxo-7,8-dihydro-9H-purin-9-yl)methyl)benzyl)piperidin-4-yl)ethylcarbamate]
EC50 [4]: 5.5 nM
EC50 (text to Table 11, TLR7, read-out: EC50): < 10 nM

CCCCOc1nc(N)c2[nH]c(=O)n(Cc3ccc(CN4CCC(CCN)CC4)cc3)c2n1 [AXC-878, 6-amino-9-(4-((4-(2-aminoethyl)piperidin-1-yl)methyl)benzyl)-2-butoxy-7H-purin-8(9H)-one]
EC50 [4]: 50.4 nM

CCCCOc1nc(N)c2[nH]c(=O)n(Cc3ccc(CN4CCC(CCNC(=O)CCOCCON)CC4)cc3)c2n1 [AXC-880, N-(2-(1-(4-((6-amino-2-butoxy-8-oxo-7H-purin-9(8H)-yl)methyl)benzyl)piperidin-4-yl)ethyl)-3-(2-(aminooxy)ethoxy)propenamide]
EC50 [1]: 410 nM
EC50 [2]: 410 nM
EC50 [3]: 167 nM

CCCCOc1nc(N)c2[nH]c(=O)n(Cc3ccc(CNCCCCCCN)cc3)c2n1 [AXC-881, 6-amino-9-(4-((6-aminohexylamino)methyl)benzyl)-2-butoxy-7H-purin-8(9H)-one]
EC50 [4]: 87.3 nM

CCCCOc1nc(N)c2[nH]c(=O)n(Cc3ccc(CNCCCCCCNC(=O)CON)cc3)c2n1 [AXC-882, N-(6-(4-((6-amino-2-butoxy-8-oxo-7H-purin-9(8H)-yl)methyl)benzylamino)hexyl)-2-(aminooxy)acetamide]
EC50 [1]: 551 nM
EC50 [2]: 551 nM
EC50 [3]: 343 nM

CCCCOc1nc(N)c2[nH]c(=O)n(Cc3ccc(CN4CCC(CCNC(=O)C(C)(C)NC)CC4)cc3)c2n1 [AXC-884, N-(2-(1-(4-((6-amino-2-butoxy-8-oxo-7H-purin-9(8H)-yl)methyl)benzyl)piperidin-4-yl)ethyl)-2-methyl-2-(methylamino)propanamide]
EC50 [4]: 71.3 nM

CCCCOc1nc(N)c2[nH]c(=O)n(Cc3ccc(CN4CCC(CCNC(=O)C(C)(C)C)CC4)cc3)c2n1 [AXC-885, N-(2-(1-(4-((6-amino-2-butoxy-8-oxo-7H-purin-9(8H)-yl)methyl)benzyl)piperidin-4-yl)ethyl)pivalamide]
EC50 [4]: 11.3 nM

CCCCOc1nc(N)c2[nH]c(=O)n(Cc3ccc(CN4CCC(CCNC(C)=O)CC4)cc3)c2n1 [AXC-886, N-(2-(1-(4-((6-amino-2-butoxy-8-oxo-7H-purin-9(8H)-yl)methyl)benzyl)piperidin-4-yl)ethyl)acetamide]
EC50 [4]: 16.7 nM

— patent US20230302150A1, “ANTIBODY-TLR AGONIST CONJUGATES, METHODS AND USES THEREOF” (Ambrx, Inc., priority 2020, published 2023)
